The values that follow come from US7553826B2, “Cytarabine monophosphate prodrugs” (Metabasis Therapeutics, Inc., priority 2002, dated 2009).

Where only a bound is given, the exact number is not on record here.

Data set [1] can be described thus: Mouse 5-day safety pharmacology. The class given is in vivo. The conditions noted are these: mice. On the procedure:
AraC was purchased from Sigma Chemical Co. (St. Louis, Mo., catalog # C1768, lot # 39H5962). Compound C and araC were dissolved in sterile physiological saline. Stock solutions were prepared daily from pre-weighed drug. All but the highest concentrations were prepared by diluting the stock solutions using additional sterile saline. Any drug not used immediately was refrigerated and used within 24 hours. All prodrugs were dosed in cytarabine molar equivalents (CE).
Male NIH Swiss Webster mice (25 to 33 g body weight, Harlan Sprague Dawley, Indianapolis, Ind.) were injected i.p. with Compound C, araC or vehicle once a day on days 0-4, approximately 3 to 4 hours following the beginning of the vivarium light cycle. Doses for Compound C were 1000, 300, 100 and 30-mg/kg nucleoside equivalents/day (equal to 1848, 554, 185 and 55.4 mg/kg/day) whereas araC was administered at 100, 30, 10 and 3 mg/kg/day. The vehicle was saline. Body weights were recorded on days 0-4 immediately prior to compound administration and on day 5 prior to sacrifice. All mice were sacrificed on day 5 (23-25 hours following the last i.p. dose) by exsanguination under halothane anesthesia, and subsequent cervical dislocation. The blood from each animal was analyzed for blood chemistry and hematology parameters as described in Example H. Livers were excised and fixed in neutral-buffered 10% formalin, and bone marrow was flushed from the right femur using 1 ml PBS without calcium or magnesium and nucleated cell counts measured as in Example H.
EDTA-treated blood samples were submitted to LabCorp (LabCorp, San Diego, Calif.) for hematology analysis including erythrocyte and platelet numbers, hemoglobin, and hematocrit. Serum chemistry analysis was also performed by LabCorp. Tissue specimens from mice treated with vehicle or 100 mg/kg araC or 1000 mg/kg CE Compound C were coded and shipped in formalin to Comparative Biosciences (Mountain View, Calif.) for preparation of hematoxylin/eosin-stained tissue sections and histopathology evaluation. Specimen codes for the histopathology studies were: #1-7, Compound C 1000 mg/kg/day; #33-40, araC 100 mg/kg/day; #65-72, Saline vehicle.
Results are expressed as mean±standard error for 5-8 animals per dose group. For selected hematology parameters, data for each animal were also presented as a % of the mean of the vehicle group. Statistical analysis was performed by one-way ANOVA followed by Dunnett's post-hoc test for differences between a control group and multiple dose groups. A p-value of less than 0.05 was considered statistically significant.

Data set [2] is described as follows: Liver araCTP and liver targeting with continuous i.v. infusion in rats. The conditions noted are these: rat, in vivo, iv. The text has this: A saline filled blunt PE-50 tubing catheter (Intramedic, Becton Dickinson, Sparks, Md.) was inserted into the jugular vein, exteriorized between the scapulae and connected to a swivel-tethering constant infusion system (Lomir Biomedical, Inc., Malone, N.Y. and Harvard Apparatus, Inc., South Natick, Mass.). The tubing was filled with heparinized saline and sealed, and the animals allowed to recover for one to seven days.
After the various durations of infusion the animals were anesthetized by intra-catheter injections of the anesthetic mix described above. Blood samples were obtained via cardiac puncture using a 23-gauge needle attached to a heparin coated 3 cc syringe.
(§1) In those studies, liver, plasma and bone marrow samples were obtained at necropsy to evaluate liver targeting.
(§2) Results are expressed as mean±standard error of the mean. When appropriate, AUC was calculated from time zero to the last time-point of the study. Liver targeting indices (LTIs) were calculated by dividing the liver araCTP AUC by the AUC for plasma araC (plasma LTI) or by the AUC for bone marrow araCTP (bone marrow LTI) for each compound. For the continuous infusion studies, the steady state araCTP levels were divided by the steady state plasma araC levels.

A short description of data set [3]: Single dose i.p. bolus liver levels / liver targeting in mice. The conditions noted are these: administered intraperitoneally. As to the method: At specified times post injection, mice were anesthetized and exsanguinated via cardiac puncture. The whole liver was removed, and snap-frozen in liquid nitrogen, and homogenized using a Polytron homogenizer PT 10/35 (Brinkmann Instruments, Westbury, N.Y.) in 3 volumes of 10% (v/v) perchloric acid (PCA). After a 5 min centrifugation at 2,500×g, 1 mL of supernatant was neutralized using 0.3 mL 3 M KOH/3 M KHCO3 and mixed thoroughly. Samples were then centrifuged for 5 minutes and resulting supernatants were treated with periodate in order to remove endogenous ribonucleotides which otherwise might interfere with araCTP detection. […] Resulting samples were analyzed by HPLC as described below.
To measure bone marrow araCTP, the bone marrow samples were flushed from the marrow cavities of femurs with 1.2 ml saline into pre-weighed Eppendorf tubes. After centrifugation for 20-30 seconds (Eppendorf microfuge, 14,000 rpm) and removal of the supernatant, 12 volumes of 3% PCA (v/v) were added to the bone marrow cell pellets. Samples were then vortexed until the pellet was well dissolved and centrifuged as above for 10 min. Ninety μL of extracted supernatant was neutralized to pH 7-8 using 30 μL 1 M KOH/1 M KHCO3 and again centrifuged. Resulting supernatants were periodate-treated as above.
Samples (50 μL) were injected onto the column in 70% 10 mM ammonium phosphate buffer and 30% 1 M ammonium phosphate buffer, both at pH 3.5 and containing 6% ethanol. […] A standard curve was prepared by adding known amounts of araCTP into PCA extracts from control liver or bone marrow prior to neutralizing, and preparing HPLC samples accordingly.
To obtain plasma, blood was transferred to heparinized micro-collection tubes and centrifuged in an Eppendorf microfuge at 14,000 rpm for 2 minutes. Resulting plasma was collected, placed on dry ice, and subsequently stored at −20° C. On the day of analysis, proteins were precipitated by adding 1 mL acetonitrile to 100 μL of plasma. After 10 min centrifugation (Eppendorf microfuge, 14,000 rpm), the supernatant was removed and dried in a Savant SpeedVac Plus SC110A. Samples were reconstituted with 110 μL of mobile phase buffer (20 mM KH2PO4, pH 4.5), sonicated for 5 min, and centrifuged for 30 seconds. […] AraC and prodrugs were detected by absorbance at 280 nm and quantitated using standard curves obtained with spiked plasma samples processed as above.
Results are expressed as mean±standard error of the mean. Data were analyzed by repeated measures ANOVA, followed by the Tukey HSD post-hoc test for comparisons at individual time points when appropriate. A p-value of less than 0.05 was considered statistically significant. Dotted lines in figures indicate LOQ (limit of quantitation) using the indicated HPLC method.
as §1, §2

A short description of data set [4]: Plasma stability in human plasma. Format: in vitro ADME. On the procedure:
Male- and female-pooled human plasma (Bioreclamation Inc., Hickville, N.Y., catalog # […], lot # BRH02236) containing heparin as anticoagulant, pH of all plasma aliquots was 8.3. […] Samples (100 μL) were quenched with 1 mL of acetonitrile. […] Samples were resuspended in 120 μL of mobile phase buffer before HPLC analysis. For plasma samples, 40 μL or 50 μL samples were injected onto the column described in Example E with mobile phase buffer, 20 mM potassium phosphate buffer, pH 6.2 (Fisher Scientific, catalog # P261-1, various lots). All other HPLC analysis was performed as described in Example E.

Consider `Nc1ccn([C@@H]2O[C@H](COP3(=O)OCCC(c4ccncc4)O3)[C@@H](O)[C@@H]2O)c(=O)n1` (relative stereo) [Compound C, 2(1H)-Pyrimidinone, 4-amino-1-[5-O-cis-[2-oxido-4-(4-pyridinyl)-1,3,2-dioxaphosphorinan-2-yl]-β-D-arabinofuranosyl]], for which, in data set [1] (100 mg/kg araC or 1000 mg/kg CE Compound C), the “histopathology of liver, kidney and small intestine” value is given as “no toxicologically relevant histopathologic changes”. Besides, in data set [1] (5-day repeated dose), the hepatotoxicity result is “No hepatotoxicity was observed”. For the same molecule, the “safety relative to araC in terms of hematologic endpoints” value in data set [1] (5-day repeated dose) is at least 30 fold. In addition, in data set [1] (5 days i.p., araC 30 and 100 mg/kg/day), the “red blood cell parameters (erythrocyte numbers, hematocrit, hemoglobin)” value was “similarly affected these parameters, but at ten-fold higher doses”. Further, the “dose required to reduce nucleated bone marrow cells, relative to araC” value in data set [1] (Compound C 1000 mg/kg/day of nucleoside equivalents) is reported as 30 fold. Also, the “PMN, mononuclear cell, or platelet numbers” value in data set [1] (any dose (30-1000 mg/kg/day CE) i.p. for 5 days) was “did not affect”. For the same molecule, the “effect on body weight” value in data set [1] (daily i.p. 5 days, highest dose: araC 100 mg/kg/day, Compound C 1000 mg/kg/day of nucleoside equivalents) was “no significant effect”. Also, the Glucose entry in data set [1] (araC 30 and 100 mg/kg/day, Compound C 1000 mg/kg/day) is reported as “lowered”. Further, the “reduction of peripheral exposure (liver targeting)” value in data set [2] is listed as around 10 fold; in data set [3], around 20 fold. Besides, the “half-lives in human plasma” value in data set [4] was above 1 days.
